The text below walks through data of patent US20230115945A1, “AMINOPYRIMIDINE COMPOUNDS” (TYRA BIOSCIENCES, INC., priority 2019, published 2023).

Conditions in all cases: 11-point 3-fold dilution, qPCR readout
In general terms: In qPCR the cycle at which signal appears reflects the starting amount.

The target of one assay is T1, FGFR3 (V555M) (Homo sapiens, UniProt P22607, V555M).
T1 construct: made in house; host or cells: E. coli host derived from BL21, infected with T7 phage
Description: Kinase binding assay (Kd), FGFR3 (V555M). Here is the method: (§1) Kinase-tagged T7 phage strains were prepared in an E. coli host derived from the BL21 strain. E. coli were grown to log-phase and infected with T7 phage and incubated with shaking at 32° C. until lysis. The lysates were centrifuged and filtered to remove cell debris. Streptavidin-coated magnetic beads were treated with biotinylated small molecule ligands for 30 minutes at room temperature to generate affinity resins for kinase assays. The liganded beads were blocked with excess biotin and washed with blocking buffer SeaBlock (Pierce), 1% BSA, 0.05% Tween 20, 1 mM DTT to remove unbound ligand and to reduce non-specific binding. Binding reactions were assembled by combining kinases, liganded affinity beads, and test compounds in 1× binding buffer (20% SeaBlock, 0.17×PBS, 0.05% Tween 20, 6 mM DTT).
(§2) Test compounds were prepared as 111X stocks in 100% DMSO. Kds were determined using an 11-point 3-fold compound dilution series with three DMSO control points. All compounds for Kd measurements are distributed by acoustic transfer (non-contact dispensing) in 100% DMSO. The compounds were then diluted directly into the assays such that the final concentration of DMSO was 0.9%. All reactions performed in polypropylene 384-well plate. Each was a final volume of 0.02 ml. The assay plates were incubated at room temperature with shaking for 1 hour and the affinity beads were washed with wash buffer (lx PBS, 0.05% Tween 20). The beads were then re-suspended in elution buffer (lx PBS, 0.05% Tween 20, 0.5 μM non-biotinylated affinity ligand) and incubated at room temperature with shaking for 30 minutes. The kinase concentration in the eluates was measured by qPCR.
(§3) Binding constants were calculated with a standard dose-response curve using the Hill equation: […]
(§4) The Hill Slope was set to −1. Curves were fitted using a non-linear least square fit with the Levenberg-Marquardt algorithm.

A further assay deals with T2, FGFR3 (Homo sapiens, UniProt P22607).
T2 construct: made in house; host or cells: E. coli host derived from BL21, infected with T7 phage
Description: Kinase binding assay (Kd), FGFR3. Here is the method:
as §1, §2, §3, §4

For another assay, the target named is T3, FGFR1 (Homo sapiens, UniProt P11362).
T3 construct: made in house; host or cells: E. coli host derived from BL21, infected with T7 phage
Nature of the assay: Kinase binding assay (Kd), FGFR1. Here is the method:
as §1, §2, §3, §4

Another assay addresses T4, FGFR2 (Homo sapiens, UniProt P21802).
T4 construct: made in house; host or cells: E. coli host derived from BL21, infected with T7 phage
Nature of the assay: Kinase binding assay (Kd), FGFR2. Here is the method: as §1, §2, §3, §4

In the next assay the target is T5, FGFR4 (Homo sapiens, UniProt P22455).
T5 construct: made in house; host or cells: E. coli host derived from BL21, infected with T7 phage
Description: Kinase binding assay (Kd), FGFR4. Here is the method:
as §1, §2, §3, §4

T2 sequence (P22607 23-806): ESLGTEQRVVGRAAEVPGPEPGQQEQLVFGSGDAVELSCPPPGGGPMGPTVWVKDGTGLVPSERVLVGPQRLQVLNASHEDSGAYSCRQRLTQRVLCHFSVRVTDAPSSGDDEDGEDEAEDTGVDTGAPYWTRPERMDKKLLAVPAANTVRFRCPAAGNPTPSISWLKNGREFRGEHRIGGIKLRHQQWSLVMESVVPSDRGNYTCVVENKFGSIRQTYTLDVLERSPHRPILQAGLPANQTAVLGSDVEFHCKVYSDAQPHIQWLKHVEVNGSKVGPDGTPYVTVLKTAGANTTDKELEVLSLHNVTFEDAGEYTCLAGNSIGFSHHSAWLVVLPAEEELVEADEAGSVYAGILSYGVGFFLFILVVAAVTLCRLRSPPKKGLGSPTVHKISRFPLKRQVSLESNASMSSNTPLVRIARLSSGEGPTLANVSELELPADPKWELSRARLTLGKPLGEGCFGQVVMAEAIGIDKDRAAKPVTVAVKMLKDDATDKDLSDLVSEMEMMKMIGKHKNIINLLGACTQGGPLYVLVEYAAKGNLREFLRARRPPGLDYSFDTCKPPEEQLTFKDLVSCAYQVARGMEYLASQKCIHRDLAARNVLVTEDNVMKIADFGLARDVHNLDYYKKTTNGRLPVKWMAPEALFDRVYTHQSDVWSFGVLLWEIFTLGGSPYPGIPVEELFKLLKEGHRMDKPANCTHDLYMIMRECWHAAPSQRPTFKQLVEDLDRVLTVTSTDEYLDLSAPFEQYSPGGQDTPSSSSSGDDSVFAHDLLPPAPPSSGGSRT
T1 sequence (P22607 23-806 V555M): as the sequence (P22607 23-806) above, with V533M counted along it
T3 sequence (P11362 22-822): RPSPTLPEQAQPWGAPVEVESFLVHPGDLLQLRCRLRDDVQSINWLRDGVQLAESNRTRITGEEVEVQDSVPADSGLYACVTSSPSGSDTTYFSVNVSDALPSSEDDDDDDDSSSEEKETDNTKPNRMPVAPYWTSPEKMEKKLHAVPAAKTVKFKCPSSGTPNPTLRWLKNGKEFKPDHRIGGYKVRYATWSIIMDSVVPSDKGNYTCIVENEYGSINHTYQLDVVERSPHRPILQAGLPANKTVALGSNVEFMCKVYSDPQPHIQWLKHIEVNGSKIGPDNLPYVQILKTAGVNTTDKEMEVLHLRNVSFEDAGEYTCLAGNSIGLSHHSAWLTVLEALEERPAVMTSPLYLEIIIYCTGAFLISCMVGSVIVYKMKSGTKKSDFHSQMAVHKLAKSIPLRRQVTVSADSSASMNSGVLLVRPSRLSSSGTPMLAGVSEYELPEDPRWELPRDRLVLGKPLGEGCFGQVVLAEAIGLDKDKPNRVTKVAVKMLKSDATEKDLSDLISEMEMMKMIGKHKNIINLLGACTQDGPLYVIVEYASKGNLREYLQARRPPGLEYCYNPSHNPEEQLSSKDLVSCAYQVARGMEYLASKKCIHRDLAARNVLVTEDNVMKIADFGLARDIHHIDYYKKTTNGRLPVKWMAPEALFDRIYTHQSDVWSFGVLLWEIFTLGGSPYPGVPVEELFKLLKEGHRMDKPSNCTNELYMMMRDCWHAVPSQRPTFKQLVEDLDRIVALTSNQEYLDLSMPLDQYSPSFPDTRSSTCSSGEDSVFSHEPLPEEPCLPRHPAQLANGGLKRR
T5 sequence (P22455 22-802): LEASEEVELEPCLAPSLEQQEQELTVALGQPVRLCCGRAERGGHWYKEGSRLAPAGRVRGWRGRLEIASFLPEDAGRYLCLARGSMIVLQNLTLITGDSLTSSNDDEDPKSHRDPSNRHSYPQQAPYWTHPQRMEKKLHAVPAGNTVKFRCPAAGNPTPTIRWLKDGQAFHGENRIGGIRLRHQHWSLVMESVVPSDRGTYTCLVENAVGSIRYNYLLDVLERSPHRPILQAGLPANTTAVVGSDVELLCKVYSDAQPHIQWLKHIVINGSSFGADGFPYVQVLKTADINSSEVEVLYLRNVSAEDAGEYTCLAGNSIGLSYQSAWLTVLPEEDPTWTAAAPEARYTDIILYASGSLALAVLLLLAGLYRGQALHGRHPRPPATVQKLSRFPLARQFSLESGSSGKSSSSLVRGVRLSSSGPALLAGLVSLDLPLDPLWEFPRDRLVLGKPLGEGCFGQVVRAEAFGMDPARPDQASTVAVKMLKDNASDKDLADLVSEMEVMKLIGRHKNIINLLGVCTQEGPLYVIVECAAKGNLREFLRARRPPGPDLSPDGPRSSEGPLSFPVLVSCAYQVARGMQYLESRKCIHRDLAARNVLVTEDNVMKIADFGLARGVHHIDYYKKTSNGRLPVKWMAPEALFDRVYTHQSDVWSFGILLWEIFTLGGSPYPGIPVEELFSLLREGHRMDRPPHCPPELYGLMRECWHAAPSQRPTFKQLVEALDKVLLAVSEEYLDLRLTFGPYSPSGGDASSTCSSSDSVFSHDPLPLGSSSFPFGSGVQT
T4 sequence (P21802 22-821): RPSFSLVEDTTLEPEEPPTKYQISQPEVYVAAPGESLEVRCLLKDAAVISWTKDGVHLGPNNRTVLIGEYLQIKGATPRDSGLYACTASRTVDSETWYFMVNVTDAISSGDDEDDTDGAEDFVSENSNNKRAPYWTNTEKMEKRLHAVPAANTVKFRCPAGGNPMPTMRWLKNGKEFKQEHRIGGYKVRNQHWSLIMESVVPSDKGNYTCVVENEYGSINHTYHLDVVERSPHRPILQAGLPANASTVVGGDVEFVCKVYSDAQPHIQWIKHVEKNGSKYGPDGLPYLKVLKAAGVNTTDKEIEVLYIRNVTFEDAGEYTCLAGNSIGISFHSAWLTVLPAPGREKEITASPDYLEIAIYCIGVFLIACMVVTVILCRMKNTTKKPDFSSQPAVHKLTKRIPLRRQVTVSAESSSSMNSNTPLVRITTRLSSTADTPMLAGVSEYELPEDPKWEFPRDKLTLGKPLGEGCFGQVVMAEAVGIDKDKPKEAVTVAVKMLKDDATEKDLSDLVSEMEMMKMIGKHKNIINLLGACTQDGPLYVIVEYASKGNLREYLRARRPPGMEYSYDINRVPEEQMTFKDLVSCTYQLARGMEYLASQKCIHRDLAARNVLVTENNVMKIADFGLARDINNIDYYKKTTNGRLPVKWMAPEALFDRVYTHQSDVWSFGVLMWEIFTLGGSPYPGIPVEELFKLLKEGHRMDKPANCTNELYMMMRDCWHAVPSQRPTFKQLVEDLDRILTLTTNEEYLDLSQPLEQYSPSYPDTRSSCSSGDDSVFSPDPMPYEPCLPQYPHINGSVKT

On to `COc1cc(N=S2(=O)CCN(C(C)C)CC2)ccc1Nc1ncc(Cl)c(-c2c[nH]c3ccccc23)n1` [Example 40, 5-Chloro-4-(1H-indol-3-yl)-N-[4-[(4-isopropyl-1-oxo-1,4-thiazinan-1-ylidene)amino]-2-methoxy-phenyl]pyrimidin-2-amine], for which the Kd on FGFR3 (V555M) stood at 10 nM; on FGFR3, 110 nM; on FGFR1, 80 nM; at FGFR2, 860 nM; on FGFR4, 0.1 µM.
Consider `C=CC(=O)Nc1ccc2c(cnn2-c2nc(Nc3ccc(N=S(C)(C)=O)cc3)ncc2Cl)c1` [Example 86, N-[1-[5-Chloro-2-[4-[[dimethyl(oxo)-λ^6-sulfanylidene]amino]anilino]-pyrimidin-4-yl]indazol-5-yl]prop-2-enamide], for which the Kd on FGFR3 (V555M) worked out at 7.1 nM; at FGFR3, 46 nM; on FGFR1, 90 nM; at FGFR2 it was 63 nM; on FGFR4, 0.24 µM.
The like results for `Cc1ccc2c(-c3nc(Nc4ccc(N=S(C)(C)=O)cc4)ncc3C)c[nH]c2c1` [Example 28, N-[4-[[dimethyl(oxo)-λ^6-sulfanylidene]amino]phenyl]-5-methyl-4-(6-methyl-1H-indol-3-yl)pyrimidin-2-amine] were, in that order, 4 nM, 44 nM, 27 nM, 63 nM and 0.29 µM.
Turning to `COc1cc(Nc2ncc(C)c(-c3c[nH]c4c(F)cccc34)n2)ccc1N=S(C)(C)=O` [Example 32, N-[4-[[dimethyl(oxo)-λ^6-sulfanylidene]amino]-3-methoxy-phenyl]-4-(7-fluoro-1H-indol-3-yl)-5-methyl-pyrimidin-2-amine], the Kd stood at 1 nM on FGFR3 (V555M); 3 nM on FGFR3; 2 nM at FGFR1; 3 nM on FGFR2; 0.052 µM on FGFR4.
Take `CCOc1cc(N=S(C)(C)=O)ccc1Nc1ncc(C)c(-c2c[nH]c3c(C)cccc23)n1` [Example 9, N-[4-[[dimethyl(oxo)-λ^6-sulfanylidene]amino]-2-ethoxy-phenyl]-5-methyl-4-(7-methyl-1H-indol-3-yl)pyrimidin-2-amine]: the Kd on FGFR3 (V555M) turned out to be 57 nM; at FGFR3, 370 nM; at FGFR1 it was 350 nM; on FGFR2, 3300 nM; on FGFR4 it was 0.057 µM.
`C=CC(=O)Nc1cccc2c1ccn2-c1nc(Nc2ccc(N3CCS(=N)(=O)CC3)cc2)ncc1Cl` [Example 81]: the Kd on FGFR3 (V555M) is 2 nM; at FGFR3, 23 nM; on FGFR1 it was 51 nM; at FGFR2, 62 nM; on FGFR4 it was 1.9 µM.
On to `Cn1cc(-c2nc(Nc3ccc(S(=N)(=O)C4CC4)cc3)ncc2Cl)c2ccccc21` (centres unmarked) [Example 50, 5-Chloro-N-[4-(cyclopropyl-sulfonimidoyl)phenyl]-4-(1-methylindol-3-yl)pyrimidin-2-amine], for which the Kd was found to be 26 nM at FGFR3 (V555M); 190 nM on FGFR3; 330 nM on FGFR1; 170 nM on FGFR2; 3 µM at FGFR4.
On to `CS(C)(=O)=Nc1ccc(Nc2ncc(Cl)c(-n3ncc4cc(N)ccc43)n2)cc1` [Example 87, 1-[5-Chloro-2-[4-[[dimethyl(oxo)-λ^6-sulfanylidene]amino]anilino]-pyrimidin-4-yl]indazol-5-amine], for which the Kd amounted to 16 nM at FGFR3 (V555M); 130 nM on FGFR3; 160 nM on FGFR1; 130 nM on FGFR2; 2.4 µM on FGFR4.
With `CCC(=O)Nc1ccc2c(ccn2-c2nc(Nc3ccc(N4CCS(=N)(=O)CC4)cc3)ncc2Cl)c1` [Example 73, N-[1-[5-chloro-2-[4-(1-imino-1-oxo-1,4-thiazinan-4-yl)anilino]pyrimidin-4-yl]indol-5-yl]propanamide], the Kd on FGFR3 (V555M) is 18 nM; on FGFR3, 180 nM; on FGFR1, 290 nM; on FGFR2, 380 nM; at FGFR4, 1.3 µM.
Turning to `CS(C)(=O)=Nc1ccc(Nc2ncc(Cl)c(-n3ccc4c(NC(=O)C5CC5)cccc43)n2)cc1` [Example 78, N-[1-[5-Chloro-2-[4-[[dimethyl(oxo)-λ^6-sulfanylidene]amino]anilino]-pyrimidin-4-yl]indol-4-yl]cyclopropanecarboxamide], the Kd at FGFR3 (V555M) came to 5 nM; at FGFR3, 140 nM; on FGFR1, 250 nM; on FGFR2, 290 nM; on FGFR4 it was 4.6 µM.
The corresponding values for `COc1ccc(N=S(C)(C)=O)cc1Nc1ncc(Cl)c(-c2c[nH]c3ccccc23)n1` [Example 6, 5-chloro-N-[5-[[dimethyl(oxo)-λ^6-sulfanylidene]amino]-2-methoxy-phenyl]-4-(1H-indol-3-yl)pyrimidin-2-amine] are 90 nM, 1100 nM, 390 nM, 1700 nM and 2 µM.
`Cc1cnc(Nc2ccc(N=S(C)(C)=O)cc2)nc1-c1c[nH]c2cc(F)ccc12` [Example 29, N-[4-[[dimethyl(oxo)-λ^6-sulfanylidene]amino]phenyl]-4-(6-fluoro-1H-indol-3-yl)-5-methyl-pyrimidin-2-amine]: the Kd is 4 nM at FGFR3 (V555M); 21 nM on FGFR3; 15 nM at FGFR1; 46 nM on FGFR2; 0.21 µM on FGFR4.
Regarding `C=CC(=O)Nc1ccc2c(ccn2-c2nc(Nc3ccc(S(C)(=N)=O)cc3OC)ncc2Cl)c1` (centres unmarked) [Example 71, N-[1-[5-chloro-2-[2-methoxy-4-(methylsulfonimidoyl)-anilino]pyrimidin-4-yl]indol-5-yl]prop-2-enamide], the Kd turned out to be 140 nM at FGFR3 (V555M); 1500 nM at FGFR3; 6000 nM at FGFR1; 3000 nM at FGFR2; 3.4 µM at FGFR4.
For `CCOc1cc(N=S(C)(C)=O)ccc1Nc1ncc(Cl)c(-c2c[nH]c3ccccc23)n1` [Example 2, 5-Chloro-N-[4-[[dimethyl(oxo)-λ^6-sulfanylidene]amino]-2-ethoxy-phenyl]-4-(1H-indol-3-yl)pyrimidin-2-amine], the Kd came out at 53 nM on FGFR3 (V555M); 430 nM on FGFR3; 480 nM at FGFR1; 1900 nM on FGFR2; 0.039 µM at FGFR4.
Turning to `COc1cc(N2CCS(=N)(=O)CC2)ccc1Nc1ncc(Cl)c(-c2c[nH]c3ccccc23)n1` [Example 35, 5-Chloro-N-[4-(1-imino-1-oxo-1,4-thiazinan-4-yl)-2-methoxy-phenyl]-4-(1H-indol-3-yl)pyrimidin-2-amine], the Kd on FGFR3 (V555M) came out at 9 nM; on FGFR3 it was 130 nM; on FGFR1, 72 nM; at FGFR2 it was 200 nM; on FGFR4, 0.086 µM.
For the molecule `COc1cc(S(C)(=N)=O)ccc1Nc1ncc(Cl)c(-n2ccc3ccccc32)n1` (centres unmarked) [Example 41, 5-chloro-4-indol-1-yl-N-[2-methoxy-4-(methyl-sulfonimidoyl)phenyl]pyrimidin-2-amine], the Kd at FGFR3 (V555M) came to 180 nM; at FGFR3, 6000 nM; on FGFR1 it was 9000 nM; on FGFR2, 18000 nM; at FGFR4, 6.3 µM.
Take `C=CC(=O)Nc1ccc2c(ccn2-c2nc(Nc3ccc(S(C)(=N)=O)cc3OC)ncc2C)c1` (centres unmarked) [Example 75, N-[1-[2-[2-methoxy-4-(methylsulfonimidoyl)anilino]-5-methyl-pyrimidin-4-yl]indol-5-yl]prop-2-enamide]: the Kd on FGFR3 (V555M) amounted to 380 nM; at FGFR3, 1100 nM; at FGFR1, 5000 nM; on FGFR2 it was 1600 nM; at FGFR4, 0.5 µM.
As to `CS(C)(=O)=Nc1ccc(Nc2ncc(Cl)c(-n3ccc4c(N)cccc43)n2)cc1` [Example 79, 1-[5-Chloro-2-[4-[[dimethyl(oxo)-λ^6-sulfanylidene]amino]anilino]-pyrimidin-4-yl]indol-4-amine], the Kd on FGFR3 (V555M) stood at 7 nM; at FGFR3, 87 nM; at FGFR1, 140 nM; on FGFR2 it was 140 nM; on FGFR4, 1 µM.
In the case of `CS(C)(=O)=Nc1ccc(Nc2ncc(Cl)c(-n3ccc4cc(NC(=O)C5CC5)ccc43)n2)cc1` [Example 80, N-[1-[5-Chloro-2-[4-[[dimethyl(oxo)-λ^6-sulfanylidene]amino]anilino]-pyrimidin-4-yl]indol-5-yl]cyclopropanecarboxamide], the Kd on FGFR3 (V555M) came to 23 nM; on FGFR3, 340 nM; on FGFR1 it was 740 nM; on FGFR2, 680 nM; on FGFR4, 5.3 µM.

Usually Kd stands for the constant that tells how readily two partners part at equilibrium. A higher Kd goes with a looser complex.
